± gives the standard deviation of the averaged measurements.
Tested on: G401
Experiment: relative viability vs DMSO control (72 h) (fraction); higher = more viable cells
Summary of the method: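 ATPLite readings, expressed as percent growth and averaged over up to triplicate wells, provided relative viability. Before reading, sarcoma cell lines seeded in 384-well plates to reach 80–90% confluence received 2.5 µl of serially diluted compound after 24 h, from source plates of 10 mM to 0.0002 mM. Plates were held 72 h at 37 °C, 5% CO2, with 0.1% DMSO as vehicle and a 5 µM positive control. The data were rescaled to 1 for full and 0 for none.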

Structure (SMILES) | relative viability (0.00017 µM) | relative viability (0.00051 µM) | relative viability (0.00152 µM) | relative viability (0.00457 µM) | relative viability (0.01372 µM) | relative viability (0.04115 µM) | relative viability (0.1235 µM) | relative viability (0.3704 µM) | relative viability (1.111 µM) | relative viability (3.333 µM) | relative viability (10 µM)
COc1cc2/c(=N/c3ccc(Br)cc3F)nc[nH]c2cc1OCC1CCN(C)CC1 [Vandetanib] | 0.983 ± 0.019 | 0.98623 ± 0.00074 | 0.989 ± 0.019 | 0.99 ± 0.028 | 0.993 ± 0.025 | 0.968 ± 0.025 | 0.971 ± 0.015 | 0.988 ± 0.033 | 0.87 ± 0.013 | 0.736 ± 0.0092 | 0.0218 ± 0.0004
CCCS(=O)(=O)Nc1ccc(F)c(C(=O)c2c[nH]c3ncc(-c4ccc(Cl)cc4)cc23)c1F [Vemurafenib] | 1.01 ± 0.0022 | 1.02 ± 0.016 | 1.01 ± 0.017 | 1.004 ± 0.01 | 1.01 ± 0.024 | 1 ± 0.03 | 1.02 ± 0.0078 | 1.031 ± 0.0097 | 1.01 ± 0.011 | 1.01 ± 0.021 | 0.753 ± 0.023
C[C@@H](c1ccc2nccn2c1)n1nnc2ncc(-c3cnn(C)c3)nc21 [Volitinib] | 1.01 ± 0.029 | 1.01 ± 0.042 | 1.03 ± 0.035 | 1.04 ± 0.044 | 1 ± 0.018 | 1.03 ± 0.019 | 1.03 ± 0.015 | 1.04 ± 0.046 | 1.03 ± 0.049 | 0.987 ± 0.026 | 0.955 ± 0.025
C=CC(=O)N1CCC([C@@H]2CCNc3c(C(N)=O)c(-c4ccc(Oc5ccccc5)cc4)nn32)CC1 [Zanubrutinib] | 0.964 ± 0.022 | 0.96 ± 0.023 | 0.99 ± 0.023 | 0.99 ± 0.024 | 0.946 ± 0.044 | 0.957 ± 0.031 | 0.957 ± 0.026 | 0.9805 ± 0.0066 | 0.932 ± 0.035 | 0.872 ± 0.029 | 0.801 ± 0.039

Reference: the supplement of paper PMC10883282
